Series [1] can be described thus: Toxicity by weight loss in test animals (Protocol 4; toxic = weight loss of ≥4.0 grams); toxic dose. The series is classed as in vivo, mice. The text has this:
By "non-toxic", as used herein with reference to the ester compounds of the present invention, is meant a compound which is not toxic according to Protocal 4, section 4.301(b)(3) where toxicity is defined as a weight loss of ≥4.0 grams as reported in R. I. Geran, N. H. Greenberg, M. M. MacDonald, A. M. Schumacher and B. J. Abbott, Cancer Chemotherapy Reports, Part 3, Vol. 3, No. 2, September 1972.

The test system of another series is L-1210 leukemia. Description: L-1210 Life Prolongation Assay. The series is classed as in vivo, mice. The text has this: L-1210 Life Prolongation Assay^a
^a Intraperitoneal transplants.
^b Q04DX02 = ip injection on days 1 and 5.
Q04HX02 = iv drug dosing on hours 1 and 5.
^c % TC = (median survival time of treated/control animals) ×
^d log of initial tumor cell population minus log of tumor cell
population at the end of treatment. […]

The next series deals with T1, topoisomerase I (Bos taurus, UniProt F1MN93).
T1 sequence (F1MN93 1-767): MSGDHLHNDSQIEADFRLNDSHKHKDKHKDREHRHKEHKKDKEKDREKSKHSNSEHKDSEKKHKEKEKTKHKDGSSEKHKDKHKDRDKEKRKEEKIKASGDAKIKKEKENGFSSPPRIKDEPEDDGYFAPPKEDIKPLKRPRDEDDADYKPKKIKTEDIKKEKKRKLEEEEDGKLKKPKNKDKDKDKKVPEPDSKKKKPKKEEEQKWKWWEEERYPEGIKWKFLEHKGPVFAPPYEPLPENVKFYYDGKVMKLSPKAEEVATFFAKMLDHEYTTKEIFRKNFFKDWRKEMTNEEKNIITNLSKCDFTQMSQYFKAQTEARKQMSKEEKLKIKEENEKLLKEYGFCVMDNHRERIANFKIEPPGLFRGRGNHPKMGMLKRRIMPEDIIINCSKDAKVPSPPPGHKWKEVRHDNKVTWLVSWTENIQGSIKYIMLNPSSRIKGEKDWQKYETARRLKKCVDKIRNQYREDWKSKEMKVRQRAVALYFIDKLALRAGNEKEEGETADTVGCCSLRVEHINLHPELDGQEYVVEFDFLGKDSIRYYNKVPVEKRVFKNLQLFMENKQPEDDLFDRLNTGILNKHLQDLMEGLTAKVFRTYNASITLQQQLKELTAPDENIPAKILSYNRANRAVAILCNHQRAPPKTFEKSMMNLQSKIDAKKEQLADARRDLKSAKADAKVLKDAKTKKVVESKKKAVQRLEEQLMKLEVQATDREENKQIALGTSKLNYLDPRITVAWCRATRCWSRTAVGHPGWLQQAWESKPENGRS
Description: Cleavable complex assay (topoisomerase I inhibition). The series is classed as biochemical. Particulars: S.E. in own column, read-out: IC50, minimum drug concentration that inhibited the cleavable complex formation by 50%. The text has this: This relaxation is brought about by breakage of one of the DNA strands in the formation of a covalent topoisomerase I-DNA complex.

For a further series, the system named is leukemia and tumor. As to conditions: Wall 1969; cited from earlier work.
A further series has as its system P388 leukemia. As to conditions: Wall 1983; cited from earlier work.
The conditions of series [2]: physiological pH, 7.2; Burke et al. 1993; cited from earlier work.
The conditions of series [3]: background statement; cited from earlier work.
The mark [4] stands for this setting: at highest active dose, ip, Q04DX02 (days 1 and 5).
The mark [5] stands for this setting: ip, Q04DX02 (ip injection on days 1 and 5), intraperitoneal transplants.
Where [6] appears, read: iv, Q04HX02 (iv drug dosing on hours 1 and 5), intraperitoneal transplants.
Setting [7] is: at highest active dose, iv, Q04HX02 (hours 1 and 5).

Counter-ions that a name gives are not always drawn.

Consider nine compounds from US5646159A (priority 1994, dated 1997).

As for `CCC1(O)C(=O)OCc2c1cc1n(c2=O)Cc2cc3cc4c(cc3nc2-1)OCO4` (racemic) [10,11-(methylenedioxy)-(20RS)-CPT, 10,11-methylenedioxy-20(RS)-camptothecin, reference compound], the toxic dose in series [1] (ip, Q04DX02 (days 1 and 5)) was found to be 8.0 mg/kg. Also, the “% T/C = (median survival time of treated/control animals) × 100” value in the series on L-1210 leukemia (setting [4]) came out at 325%. Further, in the series with L-1210 leukemia (ip, Q04DX02 (days 1 and 5)), the “KE, log of initial tumor cell population minus log of tumor cell population at the end of treatment” value is 5.97; the active dose range is 2 to 4 mg/kg; the cures was 2/6. Besides, in the series with L-1210 leukemia (setting [5]), the highest active dose came out at 2 mg/kg.

With `CCC1(OC(=O)CN)C(=O)OCc2c1cc1n(c2=O)Cc2cc3cc4c(cc3nc2-1)OCO4` (racemic) [10,11-MDO-20-O-glycinyl-(20RS)-CPT·HCl], the toxicity in words entry in series [1] (administered at 20 mg/kg) is given as “non-toxic”. In addition, the “greater amount of the ester that can be administered than the parent compound” value in series [1] (ester vs parent 10,11-methylenedioxy-20(RS)-camptothecin) turned out to be 10 fold. Moreover, the “toxic dose (not toxic at dose)” value in series [1] (iv, Q04HX02 (hours 1 and 5)) is recorded as “NT at 20”. Further, the IC50 at topoisomerase I was 430 nM. Besides, the “% T/C = (median survival time of treated/control animals) × 100” value in the series on L-1210 leukemia (iv) was found to be 236%. In the series with L-1210 leukemia (iv, Q04HX02 (hours 1 and 5)), the “KE, log of initial tumor cell population minus log of tumor cell population at the end of treatment” value came to 5.97; the active dose range lay in the range of 1.25 to 20 mg/kg; the cures was 3/6. In addition, the highest active dose in the series on L-1210 leukemia (setting [6]) is recorded as 10 mg/kg.

On to `CCC1C(=O)OCc2c1cc1n(c2=O)Cc2cc3ccccc3nc2-1` (centres unmarked) [20-desoxy-CPT], for which the “antileukemia and antitumor activity” value with leukemia and tumor is “inactive”.

In series [1] (ip, Q04DX02 (days 1 and 5)), `CCC1(O)C(=O)OCc2c1cc1n(c2=O)Cc2cc3cc(N)ccc3nc2-1` (racemic) [10-amino-(20RS)-CPT, reference compound] returned a toxic dose of 6.25 mg/kg. The “% T/C = (median survival time of treated/control animals) × 100” value with L-1210 leukemia (ip) was determined as 365%. Besides, in the series on L-1210 leukemia (ip, Q04DX02 (days 1 and 5)), the “KE, log of initial tumor cell population minus log of tumor cell population at the end of treatment” value was 5.97; the active dose range was 1.35 to 3.74 mg/kg; the cures is recorded as 3/6. In addition, in the series on L-1210 leukemia (setting [5]), the highest active dose is listed as 3.75 mg/kg.

As to `CC[C@@]1(O)C(=O)OCc2c1cc1n(c2=O)Cc2cc3ccccc3nc2-1` [camptothecin, Camptothecin], in the series with P388 leukemia, the “activity in the P388 leukemia assay” value was “High activity”. In addition, the lactone ring opening entry in series [2] was “opens to a physiologically inactive open form”. Further, in series [3], the water solubility result is on record as “water insoluble”.

`CC[C@@]1(O)C(=O)OCc2c1cc1n(c2=O)Cc2cc3c(N)cccc3nc2-1` [9-amino-(20S)-CPT, reference compound] displayed a toxic dose in series [1] (ip, Q04DX02 (days 1 and 5)) of 10 mg/kg. In the series with L-1210 leukemia (ip, Q04DX02 (days 1 and 5)), the “KE, log of initial tumor cell population minus log of tumor cell population at the end of treatment” value amounted to 4.8; the active dose range was in the range of 5.3 to 12 mg/kg; the cures was 1/6. This compound came in with a highest active dose in the series on L-1210 leukemia (setting [5]) of 12 mg/kg. The “% T/C = (median survival time of treated/control animals) × 100” value in the series with L-1210 leukemia (mouse, in vivo, ip) was found to be 250%.

For the compound `CCC1(OC(=O)CN)C(=O)OCc2c1cc1n(c2=O)Cc2cc3cc(N)ccc3nc2-1` (racemic) [10-amino-20-glycinyl-(20RS)-CPT.HCl, 10-amino-20-O-glycinyl-(20RS)-CPT·HCl], the “toxic dose (not toxic at dose)” value in series [1] (iv, Q04HX02 (hours 1 and 5)) is given as “NT at 20”. For the same compound, the “% T/C = (median survival time of treated/control animals) × 100” value in the series on L-1210 leukemia (setting [7]) worked out at 225%. Besides, in the series with L-1210 leukemia (iv, Q04HX02 (hours 1 and 5)), the “KE, log of initial tumor cell population minus log of tumor cell population at the end of treatment” value is more than 5.97; the active dose range was in the range of 1.25 to 20 mg/kg; the cures is 0. The highest active dose in the series with L-1210 leukemia (setting [6]) was 20 mg/kg.

For `CCC1(OC(C)=O)C(=O)OCc2c1cc1n(c2=O)Cc2cc3ccccc3nc2-1` (stereo not drawn) [CPT-20α-acetate], the “antileukemia and antitumor activity” value with leukemia and tumor is “inactive”.

As to `CCC1(OC(=O)CN)C(=O)OCc2c1cc1n(c2=O)Cc2cc3c(N)cccc3nc2-1` (racemic) [9-amino-20-glycinyl-(20RS)-CPT.HCl, 9-amino-20-O-glycinyl-(20RS)-CPT·HCl], the “toxic dose (not toxic at dose)” value is given as “NT^e at 10” in series [1] (ip, Q04DX02 (days 1 and 5)); “NT at 5” in series [1] (iv, Q04HX02 (hours 1 and 5)). Moreover, the “% T/C = (median survival time of treated/control animals) × 100” value in the series on L-1210 leukemia (setting [4]) amounted to 132%; in the series with L-1210 leukemia (setting [7]), 168%. Moreover, the highest active dose turned out to be 5 mg/kg in the series on L-1210 leukemia (mouse, in vivo) and 10 mg/kg with L-1210 leukemia (mouse, in vivo, ip). Moreover, the “KE, log of initial tumor cell population minus log of tumor cell population at the end of treatment” value is on record as -1.00 in the series on L-1210 leukemia (mouse, in vivo, ip) and 1.67 in the series on L-1210 leukemia (mouse, in vivo, iv). In addition, the active dose range was 10 mg/kg in the series on L-1210 leukemia (mouse, in vivo, ip) and 2.5 to 5.0 mg/kg with L-1210 leukemia (mouse, in vivo, iv). The cures is on record as 0 with L-1210 leukemia (mouse, in vivo, ip) and 1/6 in the series with L-1210 leukemia (mouse, in vivo, iv).
